Data reported in patent US6294650A, “Inhibition of mammalian telomerase by peptide nucleic acids” (The Board of Regents, University of Texas System, priority 1999, dated 2001).

Tests used:
human telomerase [1] = test: TRAP assay of telomerase activity in HME50-5 cell extracts preincubated with PNA or PS oligomer; format: biochemical
Procedure: Cells were derived from a human immortal primary breast epithelial cell line (HME50-5) that expresses telomerase at high levels. Cell extracts were obtained by resuspending a 100,000 cell pellet into 200 μl of lysis buffer (0.5% 3-[3-cholamidopropyl-dimethylammonio]-1-propane-sulfonate (CHAPS), 10 mM Tris-HCl, pH 7.5, 1 mM ethylenebis(oxyethylene-nitrilo)tetraacetic acid (EGTA), 5 mM β-mercaptoethanol, 0.1 mM 4-(2-aminoethyl)benzenesulfonyl fluoride (AEBSF), 10% glycerol). The suspension was mixed by pipetting at least three times and kept on ice for 30 minutes. The lysate was centrifuged at 16,000×g for 20 minutes at 4° C., and 160 μl of the supernatant was collected. The cells were then diluted 10-fold to obtain a 50 cell equivalent/μl stock suspension, aliquoted, frozen in liquid nitrogen, and stored at -80° C. These aliquots were utilized throughout our experiments to ensure consistency.
The tubes were transferred to a PCR thermocycler set at 94° C. for 3 minutes to melt the wax barrier, cycled 30 times (30 seconds at 95° C., 30 seconds at 55° C. and 30 seconds at 72° C.) followed by a 3 minute extension at 72° C. The samples were frozen at -80° C. and the wax barrier removed. […] Gels were fixed for 30 minutes (1:1 ethanol: water, 0.5 M NaCl, 40 mM NaOAc, pH 4.2) then exposed to a phosphorimager screen for quantitation. […] Data was processed using ImageQuant software version 3.3.
Varied concentrations of PNA were added to cell extracts containing the TS primer. Telomerase products were visualized by gel electrophoresis and the extent of inhibition was quantified by phosphorimager analysis by evaluating each lane of the gels separately. The lanes were further separated into two areas for evaluation; one for the internal amplification standard (ITAS) and the other for all telomerase products. […] This ratio was taken to indicate telomerase activity with the ratio of the positive control being assigned 100% activity. The extent of inhibition as a function of the concentration of the added PNA was plotted and these graphs were utilized to derive the IC50.
Telomerase activity was measured using the telomeric repeat amplification protocol (TRAP). Rather than measure the change in chromosome length over time, a process that requires weeks to produce definitive results and measures telomerase activity only indirectly, the TRAP assay measures the elongation of a short oligonucleotide primer (TS primer) known to act as an efficient substrate of telomerase. Cell extracts from a human immortal breast epithelial cell line, HME50-5, expressing telomerase were preincubated with PNAs to allow recognition of complementary sequences by Watson-Crick base-pairing. The TS primer was then added to initiate chain elongation by telomerase. Following elongation of the TS primer, the mixture was transferred to a thermocycler and polymerase chain reaction (PCR) was performed to amplify the products. Two potential template DNAs were present, and amplification products were primed from either an internal amplification standard (ITAS) or from the product of telomerase elongation of the TS primer. These amplification products were separated by gel electrophoresis and quantitated separately. A ratio of the amount of amplified products of telomerase activity to that derived from amplification of the ITAS standard was determined and compared to a positive control to which no PNA was added. This comparison allowed calculation of the inhibition of telomerase activity due to a given concentration of PNA.

human telomerase [2] = test: TRAP assay of telomerase activity in permeabilized HME50-5 cells; format: cell-based; details: 37° C., read-out: IC50 (nM) Perm. Cells 37° C.
Procedure: To examine the ability of PNAs to inhibit telomerase activity within permeabilized cells HME50-5 cells were treated with a buffered solution containing a relatively low concentration of detergent (20 mM Tris-HCl, pH 8.3, 1.5 mM MgCl2, 68 mM KCl, 0.5% Tween 20, 1 mM EGTA, 5.0% glycerol, and 0.1 mM AEBSF). The telomerase activity in these cells was not further purified, and permeabilized cells were incubated with PNA and PS oligomers prior to assay for telomerase activity.
A further control experiment was performed to ensure that the observed. inhibition was due to PNA entry into permeabilized cells The TRAP assay was utilized to compare the level of telomerase activity retained inside permeabilized cells to activity which leaks into solution. This control was necessary to ensure that the observed inhibition was due to PNA inhibition of telomerase within cells. Permeabilized cells were centrifuged and the cell pellet and the cell-free supernatant were separately examined for telomere activity using the TRAP assay. Greater than 80% of telomerase activity remained associated with the cell pellet after this mild treatment, confirming that telomerase is largely retained inside permeabilized cells.
Telomerase activity was determined using the telomere repeat amplification protocol (TRAP) assay essentially as described (Piatyszek et al. (1995) Methods in Cell Science 17: 1) with the modification that the cellular extract was preincubated at 25° C. for 30 minutes with the PNA at the concentrations indicated. Following preincubation 3 μl of the cellular extract plus PNA was added to a PCR tube containing 46 μl of reaction buffer (20 mM Tris-HCl, pH 8.3, 1.5 MM MgCl2, 68 MM KCl, 0.05% Tween-20, 1 mM EGTA), 50 μM dNTPs, 0.1 μg TS primer (5'-[…]-3' (SEQ ID NO:23)), 5 attg ITAS template (25), 0.5 μM T4 gene 32 protein, 2 Units Taq polymerase, 4 μCi^32 P-α dCTP) above a wax barrier separating 0.1 μg of the CX, reverse primer (5'-[…]-3' (SEQ ID NO:24)), and incubated for 30 minutes to allow telomerase to elongate the TS primer. The tubes were transferred to a PCR thermocycler set at 94° C. for 3 minutes to melt the wax barrier, cycled 30 times (30 seconds at 95° C., 30 seconds at 55° C. and 30 seconds at 72° C.) followed by a 3 minute extension at 72° C. The samples were frozen at -80° C. and the wax barrier removed. The solution containing the PCR products (40 μl) was added to 3.3 μl of loading buffer and 20 μl was loaded onto a 10% non-denaturing polyacrylamide gel and separated by electrophoresis at 180 volts for 45 minutes followed by 280 volts for 1 hour and 45 minutes. Gels were fixed for 30 minutes (1:1 ethanol: water, 0.5 M NaCl, 40 mM NaOAc, pH 4.2) then exposed to a phosphorimager screen for quantitation. Phosphorimager analysis was performed utilizing a Molecular Dynamics model 425F phosphorimager. Data was processed using ImageQuant software version 3.3.
Varied concentrations of PNA were added to cell extracts containing the TS primer. Telomerase products were visualized by gel electrophoresis and the extent of inhibition was quantified by phosphorimager analysis by evaluating each lane of the gels separately. The lanes were further separated into two areas for evaluation; one for the internal amplification standard (ITAS) and the other for all telomerase products. A ratio of telomerase products to ITAS was determined and compared to a positive control in which no PNA had been added. This ratio was taken to indicate telomerase activity with the ratio of the positive control being assigned 100% activity. The extent of inhibition as a function of the concentration of the added PNA was plotted and these graphs were utilized to derive the IC50.
The potential for such interactions to interfere with the location of hTR by PNAs was evaluated by examining elongation under conditions more similar to those in vivo. PNAs were applied to HME50-5 cells that had been mildly permeabilized. […]

[3] = HME50-5 cell extract, 25° C., 30 min preincubation, read-out: IC50 (nM) Cell Extract 25° C.
[4] = HME50-5 cell extract, 37° C., read-out: IC50 (nM) Cell Extract 37° C.

Row | Substance | IC50 (human telomerase [1]; [3]) | IC50 (human telomerase [1]; [4]) | IC50 (human telomerase [2]) | other results
1 | PNA (III): complementary PNA, sequence TTAGGGTTAG (all peptide nucleic acid (PNA)) | 200 nM | 400 nM | 500 nM | IC50 (human telomerase [1]; cell extract, 30 min preincubation, read-out: IC50 for inhibition of telomerase): 200 nM
2 | PNA (IV): complementary PNA, sequence GTTAGGGTTAG (all peptide nucleic acid (PNA)) |  |  | 300 nM | 
3 | PNA (IX): complementary PNA, sequence TAGGGTTAGAC (all peptide nucleic acid (PNA)) | 10 nM |  |  | IC50 (human telomerase [1]; HME50-5 cell extract, 25° C., 30 min preincubation, listed as PNA IX, read-out: IC50 (nM) Cell Extract 25° C.): ~10 nM
4 | PNA (V): complementary PNA, sequence AGTTAGGGTTAG (all peptide nucleic acid (PNA)) | 10 nM | 75 nM | 370 nM | 
5 | PNA (VI): complementary PNA, sequence CAGTTAGGGTTAG (all peptide nucleic acid (PNA)) | 10 nM | 50 nM | 75 nM | 
6 | PNA (VII): complementary PNA, sequence CTCAGTTAGGGTTAG (all peptide nucleic acid (PNA)) |  | 70 nM |  | 
7 | PNA (VIII): complementary PNA, sequence CCCTTCTCAGTTAGGGTTAG (all peptide nucleic acid (PNA)) | 200 nM | 300 nM | 400 nM | 
8 | PNA (X): complementary PNA, sequence GTTAGGGTTAGAC (antisense; all peptide nucleic acid (PNA)) | 10 nM |  |  | IC50 (human telomerase [1]; HME50-5 cell extract, 25° C., 30 min preincubation, listed as PNA X, read-out: IC50 (nM) Cell Extract 25° C.): ~10 nM
9 | PNA (XI): complementary PNA, sequence GGGTTAGACAA (all peptide nucleic acid (PNA)) | 10 nM | 50 nM | 70 nM | IC50 (human telomerase [1]; HME50-5 cell extract, 25° C., 30 min preincubation, listed as PNA XI, read-out: IC50 (nM) Cell Extract 25° C.): ~10 nM
10 | PNA (XII): complementary PNA, sequence TAGGGTTAGACAA (all peptide nucleic acid (PNA)) | 0.9 nM |  |  | preincubation time to reach maximal inhibition (human telomerase [1]; 300 pM PNA): ninety; preincubation time to reach maximal inhibition (human telomerase [1]; 200 nM PNA): five; reversibility of inhibition once maximal inhibition attained (human telomerase [1]; lengthy incubation with primer and nucleotides): effectively irreversible
11 | PNA (XIII): complementary PNA, sequence GTTAGGGTTAGACAA (all peptide nucleic acid (PNA)) |  | 50 nM |  | 
12 | PNA (XIV): non-complementary PNA, sequence AGGATCTTCACCTAGATCCT (all peptide nucleic acid (PNA)) [reference compound] | > 33000 nM | > 33000 nM |  | inhibition of human telomerase activity (in words) (human telomerase [1]; cell extract): did not detectably inhibit
13 | PNA (XV): non-complementary PNA, sequence TGTAAGGAACTAG (all peptide nucleic acid (PNA)) [reference compound] | > 33000 nM | > 33000 nM |  | inhibition of human telomerase activity (in words) (human telomerase [1]; cell extract): did not detectably inhibit
14 | PS (I): complementary phosphorothioate oligonucleotide 5'-GTTAGGGTTAG-3' (all phosphorothioate, sugars by position not given here) [reference compound] | 75 nM | 250 nM |  | 
15 | PS (II): complementary phosphorothioate oligonucleotide CTCAGTTAGGGTTAG (all phosphorothioate, sugars by position and methylation of C not given here) [reference compound] | 100 nM | 700 nM |  | 
16 | PS (III): complementary phosphorothioate oligonucleotide TAGGGTTAGACAA (all phosphorothioate, sugars by position and methylation of C not given here) [reference compound] | 50 nM | 200 nM |  | 
17 | PS (IV): non-complementary phosphorothioate oligonucleotide AGGATCTTCACCTAGATCCT (all phosphorothioate, sugars by position and methylation of C not given here) [reference compound] | 100 nM | 400 nM |  | 
18 | PS (V): non-complementary phosphorothioate oligonucleotide TGTAAGGAACTAG (all phosphorothioate, sugars by position and methylation of C not given here) [reference compound] | 100 nM | 450 nM |  | 
